Measurements from PubChem BioAssay (NCI).
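Five compound concentrations were applied to cells in 96-well plates for 48 hours; endpoints were derived by simple linear interpolation of the resulting dose-response curve. The concentration for full growth arrest is given as TGI.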 Where a SMILES comes first, the peptide text is derived from it. [ ]: non-standard residue; d: D form. The star is where a group is joined. NMeV = CN[C@H](C(=O)O)C(C)C; X29 = COc1ccc(CN*)c(OC)c1; Octanoyl = CCCCCCCC(=O)*; dNMeA = CN[C@H](C)C(=O)O

Experiments:
Assay in all cases: inhibition of tumour cell growth, NCI panel, 48 h
HT29 colon = tested on: HT29 colon
SF-268 CNS = tested on: SF-268 CNS
HL-60(TB) leukemia = tested on: HL-60(TB) leukemia
SK-OV-3 ovarian = tested on: SK-OV-3 ovarian
K-562 leukemia = tested on: K-562 leukemia
UACC-257 melanoma = tested on: UACC-257 melanoma
MDA-MB-231 breast = tested on: MDA-MB-231 breast
EKVX NSCLC = tested on: EKVX NSCLC
MCF7 breast = tested on: MCF7 breast
NCI-H23 lung = tested on: NCI-H23 lung
HCC-2998 colon = tested on: HCC-2998 colon
SF-295 CNS = tested on: SF-295 CNS
SK-MEL-5 melanoma = tested on: SK-MEL-5 melanoma
SF-539 CNS = tested on: SF-539 CNS
T-47D breast = tested on: T-47D breast
OVCAR-8 ovarian = tested on: OVCAR-8 ovarian

Structure (SMILES)	TGI (HT29 colon) [µM]	TGI (SF-268 CNS) [µM]	TGI (HL-60(TB) leukemia) [µM]	TGI (SK-OV-3 ovarian) [µM]	TGI (K-562 leukemia) [µM]	TGI (UACC-257 melanoma) [µM]	TGI (MDA-MB-231 breast) [µM]	TGI (EKVX NSCLC) [µM]	TGI (MCF7 breast) [µM]	TGI (NCI-H23 lung) [µM]	TGI (HCC-2998 colon) [µM]	TGI (SF-295 CNS) [µM]	TGI (SK-MEL-5 melanoma) [µM]	TGI (SF-539 CNS) [µM]	TGI (T-47D breast) [µM]	TGI (OVCAR-8 ovarian) [µM]
CN(C)c1ccc(C(Cc2ccccc2)C2NC(=S)NC2=O)cc1 (configuration not stated)	> 100	> 100	> 100	> 100	> 100	> 100	> 100	> 100	> 100	> 100	> 100	> 100	> 100	> 100	> 100	> 100
COc1cc2c3c(c1)CCCN3CCC2	> 10	> 10	> 10	> 10	> 10	> 10	> 10	> 10	> 10	> 10	> 10	> 10	> 10	> 10	> 10	> 10
NC(N)=NCC[C@H](NC(=O)OCCCCCn1ccc(=O)[nH]c1=O)C(=O)O	> 100	> 100	> 100	> 100	> 100	> 100	> 100	> 100	> 100	> 100	> 100	> 100	> 100	> 100	> 100	> 100
CC1(C)C=Cc2c(cc(O)c3c(=O)c4cc(Cl)ccc4[nH]c23)O1	> 10	> 10	6.6	> 10	> 10	> 10	> 10	> 10	> 10	6.54	> 10	8.25	6.33	> 10	> 10	> 10
COc1cc2c(c(OC)c1)/C(=C/Sc1ccccc1)C(=O)N(C(C)(C)C)C2	75.1	39	59.9	76.9	> 100	85.3	64.4	> 100	96.3	77.1	> 100	75.5	36.2	> 100	> 100	79.6
CC1=NN(C(=O)c2ccncc2)C(=O)C1	> 100	> 100	> 100	> 100	> 100	> 100	> 100	> 100	> 100	> 100	> 100	> 100	> 100	> 100	> 100	> 100
CCCCCCCC(=O)N[C@H](C(=O)N[C@H](C(=O)N(C)[C@H](C(=O)N1CCC[C@H]1C(=O)N(C)[C@H](C)C(=O)NCc1ccc(OC)cc1OC)C(C)C)C(C)C)C(C)C (Octanoyl-VV[NMeV]P[dNMeA]-X29)	> 85.2	> 100	11.3	> 100	> 100	60.7	35.5	97.3	42.8	> 82.4	> 100	> 88.7	13	> 60.4	> 100	> 100
COC(=O)[C@@H]1[C@H](OC(C)=O)CCC2[C@@]3(C[C@@H](c4ccoc4)O[C@@H]3OC)[C@H](C)CC[C@]21C(=O)OC (some centres not stated)	> 25	> 25	> 25	> 25	> 25	> 25	> 25	> 25	> 25	> 25	> 25	> 25	> 25	> 25	> 25	> 25
CN1c2ccccc2C(=O)NC12CCN(CCCC(=O)c1ccc(F)cc1)CC2	56.1	88.9	> 100	> 100	77.8	87.6	> 100	> 100	> 100	> 100	40.3	> 100	79.6	> 100	> 100	> 100
O=C(NC1CCCCC1NC(c1ccccc1)(c1ccccc1)c1ccccc1)C(=O)NC1CCCCC1NC(c1ccccc1)(c1ccccc1)c1ccccc1 (configuration not stated)	> 100	> 100	> 100	92.8	> 100	> 100	> 100	> 100	> 100	> 100	> 100	> 100	> 100	> 100	> 100	> 100
C=CCN1C(=O)/C(=C/c2cccs2)N=C1SC/C=C/C	> 100	> 100	62.2	> 100	> 100	> 100	> 100	> 100	> 100	> 100	> 100	> 100	37.7	> 100	> 100	> 100
O=C(CCCN1CCC2(CC1)CC(c1ccccc1)OC2=O)c1ccc(F)cc1 (configuration not stated)	35.2	> 100	> 100	> 100	65.8	52.1	> 100	> 100	> 100	> 100	73.2	60.9	36.1	53.1	69.1	> 100
Cc1ccc(NC(Nc2ccc(C)cc2C)=C(/C=C(\Cl)[N+](=O)[O-])[N+](=O)[O-])c(C)c1	18.8	10.3	2.6	21	3.75	13.1	17.3	32.3	12.4	20.8	38.4	31.2	13.4	23.3	3.99	7.86
COc1ccc(C(=O)/C=C/c2ccc(O)c(O)c2)c(OC)c1	32	> 52.6	2.53	> 67.9	> 37.6	15.3	27.3	> 79.6	14.1	18.3	3.4	31	13.3	7.55	> 100	> 86.6
CC1=NC(=Cc2cccc(Cl)c2)C(=O)N1n1c(-c2ccccc2)nc2ccccc2c1=O	94.8	> 100	61.6	> 100	> 100	70.3	> 100	> 100	55.3	> 100	54.5	> 100	> 100	> 100	69	> 100
O=[N+]([O-])c1nccn1CCCNc1ccnc2cc(Cl)ccc12	99.6	> 65.6	> 100	> 100	> 100	> 9.02	> 100	> 100	> 100	> 100	55.3	> 100	10.9	> 88.7	> 89.9	> 100
C[n+]1ccc(/C2=C3\C=CC(=N3)/C(c3cc[n+](C)cc3)=c3/cc/c([nH]3)=C(\c3cc[n+](C)cc3)C3=N/C(=C(/c4cc[n+](C)cc4)C4C=CC2N4)C=C3)cc1	> 100	> 100	> 100	> 100	> 100	> 100	> 100	> 100	> 100	> 100	> 100	> 100	> 100	> 100	> 100	> 100
CC1CC(C)C(C#N)N(C)c2ccccc21 (configuration not stated)	> 100	> 100	64.9	> 100	> 100	> 100	> 100	> 100	> 100	> 100	> 100	> 100	> 100	> 100	> 100	> 100
COc1c(Br)cc2c(c1OC)C(Br)CCC(Br)(Br)C2=O (configuration not stated)	3.71	4.37	3.09	10.5	8.76	14.7	8.32	14.6	6.13	3.71	16.6	6.77	6.26	5.25	4.84	1.53
Oc1ccc(-c2cc(-c3cc(-c4ccc(O)cc4)no3)on2)cc1	> 100	> 100	> 100	> 100	> 100	> 31.1	> 100	> 100	> 100	> 100	> 100	> 100	> 100	> 49.7	> 100	> 100
C=CCC1(OCc2ccccc2)C(=O)C(=O)OC1C1COC(C)(C)O1 (configuration not stated)	> 100	> 100	> 100	> 100	> 100	> 100	> 100	> 100	> 100	> 100	> 100	> 100	> 100	> 100	> 100	> 100
CC(C)(C)c1cc2c(OC/C=C/c3ccccc3)c(c1)Cc1cc(C(C#N)(OC/C=C/c3ccccc3)OC/C=C/c3ccccc3)cc(c1OC/C=C\c1ccccc1)Cc1cc(C(C)(C)C)cc(c1OC/C=C/c1ccccc1)Cc1cc(C(C#N)(OC/C=C\c3ccccc3)OC/C=C/c3ccccc3)cc(c1OC/C=C\c1ccccc1)C2 (configuration not stated)	> 100	> 100	> 100	> 100	> 100	> 100	> 100	> 100	> 100	> 100	> 100	> 100	> 100	> 100	> 100	> 100
